From patent US10952434B2, “Compositions and methods for attracting insects” (The United States of America, as Represented by the …, priority 2016, dated 2021)

What was measured:
[1] = system: female Aedes aegypti; assay: Flight tunnel mosquito bioassay; format: in vivo; conditions: for fed (mean of triplicates) / probed (mean of triplicates): paired with control; for feeding attraction, in words: three different concentrations
Protocol: Mosquitoes: Aedes aegypti (Liverpool) were reared in an insectary using standard rearing procedures. Approximately 50 larvae were reared in plastic cups (13×7×7.5 cm) at 27±1° C., and were fed ground up fish pellets. Adults were contained in plastic cartons covered by nylon screening and were fed using cotton pads soaked in a 10% glucose solution. Prior to blood feeding, 20 adult females, approximately 6 to 8 days old, were aspirated out of the rearing cartons and placed in to a stock cage (20×20×20 cm). Flight Tunnel Mosquito Bioassay: The assay system consists of a six well reservoir placed at the upwind end of a flight tunnel ([…]). Temperature and humidity of the flight tunnel were maintained at rearing conditions as described above. Air was constantly pushed through the flight tunnel at a wind speed of 35 ft/min. The four center wells of the six well reservoir were utilized in these bioassays. One of the 3 cm×4 cm wells contained 6 ml of citrate-phosphate-dextrose-adenine (CPDA) solution and three wells contained 6 ml of CPDA solution supplemented with adenosine triphosphate (ATP) (Sigma Chemical Co., St. Louis, Mo.). A constant-temperature water circulator warmed the reservoir to 38° C. A collagen membrane (Devro, Sandy Run, S.C.) was placed over the wells and secured to the reservoir with a light coat of high-vacuum grease (Dow Corning Corp., Midland, Mich.). The membranes were replaced after each replicate observation and additional substrate was added as needed. The reservoir and CPDA solution was used for one replicate. Twenty mosquitoes were aspirated into a cylindrical release canister (20.5 mm×7 mm) containing a mesh screen on one end and a damper on the opposite end (Precision Plastics, Inc., Beltsville, Md.). Mosquitoes were allowed to acclimate in the canister for ten minutes and then were utilized in bioassays. The canister was placed downwind of the reservoir in the flight tunnel. Human breath was introduced in a plume into the tunnel for one minute prior to opening of the release canister. Mosquitoes were then released into the flight tunnel where the number of mosquitoes biting (proboscis inserted through the membrane) within each cell during the 10-min exposure was recorded. The solution in each well consisted of either CPDA in deionized water or one of the three experimental solutions, 10^−2M, 10^−3 M, or 10^−4 M ATP with CPDA, each marked with a randomly assigned food dye color (Betty Crocker). The position of each colored solution in the reservoir was also randomized. Mosquitoes were used once in a test and then aspirated for determination of engorgement. Several attractant candidates were compared one on one with each other, and with CO2 in the flight tunnel to evaluate efficacy.

[2] = system: female Aedes aegypti; assay: K&D module high-throughput feeding assay; format: in vivo; conditions: for mean fed / mean probed: five females/cell
Protocol: Highthrouhput Feeding Assay: The K&D module was developed at USDA for evaluating feeding deterrence and toxicity of candidate topical repellents against hemophagus arthropod vectors (Klun, J. A., and M. Debboun, J. Med. Entomol., 37: 177-181 (2000)). In the present study the K&D module was used as a highthrouhput screening tool to evaluate response of Ae. aegypti to attractant\feeding stimuli.
In vitro bioassays were conducted as described by Klun et. al., 2000. […] The three treatments were randomly assigned to consecutive cells in 2,6-cell reservoirs connected in series to a single water-bath pump; thus, 4 replicates could be tested/run.
Tests were performed in an Air Science USA hood, with an air movement velocity of approx. 110-120 ft./min., temperature of 25-27° C., and RH of 15-25%. A six-celled reservoir was connected to and heated by a constant-temperature (38° C.) water circulator (Lauda E100, Wobser GMGH and Co., Konigshofell, Germany).
Prior to each test, the upper surface of each reservoir was coated with a thin layer of high-vacuum silicone grease (Dow Corning Corp., Midland, Mich.), and the cells then filled (approx. 6 ml. capacity) or topped-off with the following: (1) expired human red blood cells suspended in citrate-phosphate-dextrose-adenine (CPDA) solution, not more than 1 month past expiration date, and to which 110 mg ATP/35 ml. blood-CPDA had been added on the day of testing; or (2) CPDA+ATP×10^−3, usually made up or diluted to 10^−3 ATP on the day of testing.
The filled cells were then covered with an Edicol collagen membrane strip (Devro, Sandy Run, S.C.), and then with a just-treated (110 μl of 4.54 nmol/μl treatment or control solution) organdy cloth strip (G Street Fabrics, Rockville, Md.).
Mosquitoes used in the tests were either Aedes aegypti (Liverpool) or Aedes albopictus (Asian Tiger mosquitoes (ATMs)). Ae. aegypti and Ae. albopictus were originally obtained from colonies at the Walter Reed Army Institute of Research (WRAIR), Silver Spring, Md., and were maintained in colonies at the Beltsville Agricultural Research Center, USDA, ARS, Beltsville, Md. The larvae were reared (Gerber, E. J., et al., Manual for mosquito rearing and experimental techniques, Am. Mosq. Control Assoc. Bull. 5 (revised), AMCA, Inc., Lake Charles, La. (1994)) by feeding larvae ground tropical fish pellets (Hikari Cichlid Gold Fish Food, Kamihata Fish Ind. Ltd., Himeji, Japan, www.hikari.info). Adults were held at 12:12 h (light:dark) photoperiod at 26° C. and 50% RH, and fed with a cotton pad moistened with 10% aqueous sucrose solution. For both species, adult mosquitoes used in the tests were between 5-10 days old, and were kept on water pads only for 24 hrs. prior to testing. Ae. aegypti used in a given test session were all loaded into K&D modules at one time, with five adult females/cell, and tested within I-2 hrs.
K&D modules containing five adult females/cell were placed over a Teflon separator atop each reservoir; the sliding floors opened allowing access to the treated organdy cloth and membrane-covered cell, and the number of mosquitoes biting (proboscis inserted through the cloth) and/or observed to be engorged within each cell at the end of a 3-5 min. exposure period was recorded. Mosquitoes were used only once in a test, and then frozen and discarded.
Only tests in which three or more females fed in the control cell were analyzed, as lower feeding rates are indicative of substandard feeding readiness of that group of mosquitoes.
Feeding/probing responses observed on control, standard, and experimental compound-treated cells were compared using an R-code statistical analysis (Chauhan, K. R., et al., Journal of Medical Entomology, 42: 643-646 (2005)).

[3] = system: Ae. aegypti; assay: Attract and kill bait evaluation in bucket; format: in vivo, Aedes aegypti; conditions: sugar gel containing pyriproxyfen spiked with 5 ml of Okoumal
Text: Attract and Kill Bait Evaluation: The assay system consists of a 1L plastic bucket covered with screened lid. A divider was placed to separate attract and kill bait from the control feeding. 50 Adult mosquitoes used in tests were between 5-10 days old, and were kept on water pads only for 24 hrs. prior to testing. Ae. aegypti used in each test session were all loaded into plastic bucket with attract and kill bait and control feeding formulation made with agarose gel containing sugar and color. In the preliminary semi-field trial, baits were charged with attractant candidates and deployed in to the either hut or tents. In one experiment 30 adult female Aedes aegypti mosquitoes were released, while in another trial at different location 20 adult female Aedes aegypti mosquitoes were released and observed for the attraction or attract-kill effect of the candidates. To incorporate invented field stable and long lasting attractants in the baits various putative devices were constructed and few of these attract and kill bait formulations were evaluated in the insectary and semi-field conditions. Data analysis: Attraction assay data were analyzed using the Wilcoxon two-sample test (PROC NPAR1WAY, SAS 1999) to examine the difference between the numbers of mosquitoes in control from treated baits. […]

[4] = system: host seeking Aedes albopictus females; assay: Field study with BG Sentinel traps in yards; format: in vivo; conditions: BG Sentinel trap with attractant lure, 24 hr periods, 10 yards; control 3-4
Protocol: In field studies, Okoumal (1) was evaluated as an attractant for host seeking Aedes albopictus females in the BG Sentinel traps placed in different areas (yards). In the before and after control intervention evaluation, one standard BG Sentinel mosquito trap was placed in each of the 10 yards and mosquitoes were trapped for 24 hr periods in ten replicates. The first five replicates were before adding Okoumal attractant as intervention. The second set of five replicates included additional lure to the BG Sentinel trap. The traps with attractant lures collected more mean mosquitoes per trap per day (6-7 vs 3-4 mosquitoes), compared to control.

[5] = system: Aedes albopictus, Ae. triseratus, and Ae. japonicus; assay: Field study with oviposition cups; format: in vivo; conditions: 0 to 1% in oviposition cups, forested area, retrieved after 10 days
Protocol: In the second field study different concentrations (0 to 1%) of Okoumal (1) were added to oviposition cups. Oviposition cups were placed in forested area that has known populations of Aedes albopictus, Ae. triseratus, and Ae. japonicus. Ovicups were retrieved after 10 days and accessed for the presence of mosquito eggs of different species.

[6] = system: mosquitoes; conditions: compared with matching control traps baited with CO2; cited from earlier work
[7] = CO2 (dry ice) + air paired with 0.1% Okoumal
[8] = CO2 (dry ice) + air paired with 0.1% cyclopentanone
[9] = CO2 (dry ice) + air paired with 1% Okoumal
[10] = CO2 (dry ice) + air paired with 1% cyclopentanone
[11] = CO2 (dry ice) + air paired with air
[12] = 0.1% concentration, paired with CO2 (dry ice) + air
[13] = 1% concentration, paired with CO2 (dry ice) + air

Row | SMILES | fed (mean of triplicates) ([1]; 0.10% concentration) | probed (mean of triplicates) ([1]; 0.10% concentration) | fed (mean of triplicates) ([1]; 1.00% concentration) | probed (mean of triplicates) ([1]; 1.00% concentration) | fed (mean of triplicates) ([1]; 5% concentration) | probed (mean of triplicates) ([1]; 5% concentration) | feeding attraction, in words [1] | other results
1 | O=C=O [CO2 (dry ice), Carbon dioxide, reference compound] | – | – | – | – | – | – | – | mean fed [1, 7]: 3; mean probed [1, 7]: 3.7; mean fed [1, 8]: 2.8; mean probed [1, 8]: 3.1; mean fed [1, 9]: 2; mean probed [1, 9]: 2.2; mean fed [1, 10]: 2.1; mean probed [1, 10]: 2.3; mean fed [1, 11]: 1.8; mean probed [1, 11]: 2.1
2 | C1CCC2(C1)OCCO2 [Compound I-90] | 2.7 | 5.7 | 4 | 8.3 | 3 | 8.7 | consistent feeding attraction | –
3 | CC1COC2(CCCC2)O1 (centres unmarked) [Compound I-95] | – | – | 3.3 | 12 | 3.3 | 8.3 | – | –
4 | CC1COC2(CCCCC2)O1 (centres unmarked) [Compound I-96] | 3 | 6.3 | 2.7 | 8.3 | 2.7 | 12.7 | consistent feeding attraction | –
5 | COC1(OC)CCCC1 [Compound I-152] | – | – | 0.7 | 1.3 | 1 | 1.7 | – | –
6 | COC1(OC)CCCCC1 [Compound I-182] | – | – | 2.7 | 5.7 | 2 | 12.3 | – | –
7 | CCN(CC)C(=O)c1cccc(C)c1 [Deet, reference compound] | – | – | – | – | – | – | – | mean fed ([2]; Deet standard (4.54 nmol/μl)): 0.1; mean probed ([2]; Deet standard (4.54 nmol/μl)): 0.1
8 | CC1COC(C)(c2ccc3c(c2)C(C)(C)CCC3(C)C)O1 (centres unmarked) [Okoumal] | 3.3 | 18.3 | 2.8 | 9.7 | 2.3 | 13.3 | consistent feeding attraction | mosquitoes in the bucket preferring feeding on treated gel over control sugar gel [3]: 90%; mean fed ([2]; 0.1% concentration): 3.6; mean probed ([2]; 0.1% concentration): 3.3; mean fed ([2]; 0.25% concentration): 2.8; mean probed ([2]; 0.25% concentration): 3; mean fed ([2]; 1% concentration): 3.5; mean probed ([2]; 1% concentration): 3.9; mean fed ([2]; 5% concentration): 2.8; mean probed ([2]; 5% concentration): 2.9; feeding compared with control, in words ([2]; four different concentrations, twenty replicates): consistent feeding on par with either control or better; mean mosquitoes per trap per day [4]: 6-7 mosquitoes; effect on numbers of oviposited eggs, in words [5]: significant effect of Okoumal concentration on numbers of oviposited eggs; mean fed [1, 12]: 3.9; mean probed [1, 12]: 3.6; mean fed [1, 13]: 3.8; mean probed [1, 13]: 4.1; feeding (host seeking) preference, in words ([1]; compared with CO2 and cyclopentanone, host seeking female mosquitoes): consistent feeding (host seeking) preference
9 | O=C1CCCCC1 [cyclohexanone, reference compound] | – | – | 0.3 | 0.7 | 1.7 | 3.7 | – | –
10 | O=C1CCCC1 [cyclopentanone, reference compound] | 3 | 7 | 2 | 5.7 | 1 | 1.7 | – | mean fed [1, 12]: 2.6; mean probed [1, 12]: 2.2; mean fed [1, 13]: 2.1; mean probed [1, 13]: 2.8; attractiveness of baited traps, in words [6]: equivalent to that of matching control traps baited with CO2
